Measurements published in publication PMC10257182, “Discovery of senolytics using machine learning” (Nature Communications, 2023).
“And” between values parts separate entries of the source, which are not always exact repeats. Equal values may be shown once. Read-outs that look alike come from different tables or passages of the source.

Columns and labels:
Format in all cases: cell-based, human
[1] = system: senescent IMR90 ER:RAS cells (4-OHT-induced); test: Nuclei count (Hoechst, high content imaging) senolytic assay, oncogene-induced senescence (OIS) model, senescent cells
Procedure, shortened: (§1)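 Senolytic read-out as total nuclei per well by automated Hoechst imaging after 72 h compound exposure (10 μM to 10 nM, 10-point […], triplicate), relative to untreated controls. Paired cultures: IMR90 ER:RAS kept non-senescent or made senescent with 100 nM final 4-OHT; ouabain served as positive control.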

[2] = system: senescent A549 cells (etoposide-induced); test: Nuclei count senolytic assay, therapy-induced senescence (TIS) model, senescent cells; conditions: for % Cell Survival: senescence cells, single replicate
Procedure, shortened: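 Nuclei counted by Hoechst 33342 imaging after fixation, following 72 h treatment with compound at 10 nM–10 μM (10-point […], triplicates). Targets were control A549 cells and A549 rendered senescent by 48 h 100 μM etoposide plus 3 days recovery.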

[3] = system: non-senescent control IMR90 ER:RAS cells; test: Nuclei count (Hoechst, high content imaging) senolytic assay, OIS model, non-senescent control cells; conditions: Homo sapiens
Procedure, shortened: as §1

With CO[C@H]1C[C@H](O[C@H]2CC[C@@]3(C)[C@H](CC[C@@H]4[C@@H]3CC[C@]3(C)[C@@H](C5=CC(=O)OC5)[C@@H](OC(C)=O)C[C@]43O)C2)O[C@@H](C)[C@@H]1O [Oleandrin, oleandrin] the viability at 10 µM ([1]; Homo sapiens, IMR-90, 72 h, Senescent, log (dose) [M] -5, 72 h, mean n=3 (Fig 3C), read-out: Mean % Cell Survival) was 2.6%, the viability at 4.677 µM ([1]; Homo sapiens, IMR-90, 72 h, Senescent, log (dose) [M] -5.33, 72 h, mean n=3 (Fig 3C), read-out: Mean % Cell Survival) was 4.06% and the viability at 2.188 µM ([1]; Homo sapiens, IMR-90, 72 h, Senescent, log (dose) [M] -5.66, 72 h, mean n=3 (Fig 3C), read-out: Mean % Cell Survival) was 5.74%. For the same compound, the viability at 1 µM ([1]; Homo sapiens, IMR-90, 72 h, Senescent, log (dose) [M] -6, 72 h, mean n=3 (Fig 3C), read-out: Mean % Cell Survival) was 4.49%, the viability at 0.4677 µM ([1]; Homo sapiens, IMR-90, 72 h, Senescent, log (dose) [M] -6.33, 72 h, mean n=3 (Fig 3C), read-out: Mean % Cell Survival) was 5.02% and the viability at 0.2188 µM ([1]; Homo sapiens, IMR-90, 72 h, Senescent, log (dose) [M] -6.66, 72 h, mean n=3 (Fig 3C), read-out: Mean % Cell Survival) was 3.64%. The viability at 0.1 µM ([1]; Homo sapiens, IMR-90, 72 h, Senescent, log (dose) [M] -7, 72 h, mean n=3 (Fig 3C), read-out: Mean % Cell Survival) was 3.83%, the viability at 0.04677 µM ([1]; Homo sapiens, IMR-90, 72 h, Senescent, log (dose) [M] -7.33, 72 h, mean n=3 (Fig 3C), read-out: Mean % Cell Survival) was 6.59% and the viability at 0.02188 µM ([1]; Homo sapiens, IMR-90, 72 h, Senescent, log (dose) [M] -7.66, 72 h, mean n=3 (Fig 3C), read-out: Mean % Cell Survival) was 13.4%. It also gave a viability at 0.01 µM ([1]; Homo sapiens, IMR-90, 72 h, Senescent, log (dose) [M] -8, 72 h, mean n=3 (Fig 3C), read-out: Mean % Cell Survival) of 87.9%, a viability at 10 µM ([1]; Homo sapiens, IMR-90, senescence, log (dose) [M] -5, individual replicates (Fig 3D), read-out: % Cell Survival) of 3.12% and a viability at 4.677 µM ([1]; Homo sapiens, IMR-90, senescence, log (dose) [M] -5.33, individual replicates (Fig 3D), read-out: % Cell Survival) of 4.77%. The viability at 2.188 µM ([1]; Homo sapiens, IMR-90, senescence, log (dose) [M] -5.66, individual replicates (Fig 3D), read-out: % Cell Survival) was 7.52%, the viability at 1 µM ([1]; Homo sapiens, IMR-90, senescence, log (dose) [M] -6, individual replicates (Fig 3D), read-out: % Cell Survival) was 5.5% and the viability at 0.4677 µM ([1]; Homo sapiens, IMR-90, senescence, log (dose) [M] -6.33, individual replicates (Fig 3D), read-out: % Cell Survival) was 4.4%. The viability at 0.2188 µM ([1]; Homo sapiens, IMR-90, senescence, log (dose) [M] -6.66, individual replicates (Fig 3D), read-out: % Cell Survival) was 4.04%, the viability at 0.1 µM ([1]; Homo sapiens, IMR-90, senescence, log (dose) [M] -7, individual replicates (Fig 3D), read-out: % Cell Survival) was 4.95% and the viability at 0.02188 µM ([1]; Homo sapiens, IMR-90, senescence, log (dose) [M] -7.66, individual replicates (Fig 3D), read-out: % Cell Survival) was 12.3%. The IC50 ([1]; Homo sapiens, IMR-90, OIS model, 4-OHT-induced IMR90 ER:RAS, nuclei count, 72 h) was 14 nM, the “dose showing the clearest / optimal senolytic effect” value ([1]; OIS IMR90 ER:RAS, Hoechst nuclei count, marginal effect on normal cells) was 21.5 nM and the “senolytic activity (in words)” value ([1]; experimental screen, OIS IMR90 ER:RAS) was “clear senolytic action”. For the same compound, the “senolytic index (SI)” value ([1]; ratio between the IC50 of control cells and the IC50 of senescent cells, OIS IMR90 ER:RAS) was 5.8, the viability at 10 µM ([2]; Homo sapiens, A549, log (dose) [M] -5, Senescent cells, mean, read-out: Mean % Cell Survival) was 0.749% and the viability at 4.68 µM ([2]; Homo sapiens, A549, log (dose) [M] -5.33, Senescent cells, mean, read-out: Mean % Cell Survival) was 1.57%. For the same compound, the viability at 2.19 µM ([2]; Homo sapiens, A549, log (dose) [M] -5.66, Senescent cells, mean, read-out: Mean % Cell Survival) was 1.08%, the viability at 1 µM ([2]; Homo sapiens, A549, log (dose) [M] -6, Senescent cells, mean, read-out: Mean % Cell Survival) was 1.7% and the viability at 0.468 µM ([2]; Homo sapiens, A549, log (dose) [M] -6.33, Senescent cells, mean, read-out: Mean % Cell Survival) was 1.38%. For the same compound, the viability at 0.219 µM ([2]; Homo sapiens, A549, log (dose) [M] -6.66, Senescent cells, mean, read-out: Mean % Cell Survival) was 2.19%, the viability at 0.1 µM ([2]; Homo sapiens, A549, log (dose) [M] -7, Senescent cells, mean, read-out: Mean % Cell Survival) was 3.51% and the viability at 0.0468 µM ([2]; Homo sapiens, A549, log (dose) [M] -7.33, Senescent cells, mean, read-out: Mean % Cell Survival) was 9.16%. It also gave a viability at 0.0219 µM ([2]; Homo sapiens, A549, log (dose) [M] -7.66, Senescent cells, mean, read-out: Mean % Cell Survival) of 3.39%, a viability at 0.01 µM ([2]; Homo sapiens, A549, log (dose) [M] -8, Senescent cells, mean, read-out: Mean % Cell Survival) of 26.8% and an IC50 ([2]; Homo sapiens, TIS model, etoposide-induced senescent A549, nuclei count, 72 h) of 5.4 nM. For the same compound, the “concentration at which a senolytic effect was reached” value ([2]; TIS A549, Hoechst labelling, marginal effect on normal cells) was 10 nM, the “senolytic action (in words)” value ([2]; experimental screen, TIS senescent A549) was “strong senolytic action” and the “% Cell Survival” value ([2]; log (dose) [M] -5) was 1.111% and 0.1906% and 0.9453%. The “% Cell Survival” value ([2]; log (dose) [M] -5.33) was 1.898% and 1.858% and 0.9453%, the “% Cell Survival” value ([2]; log (dose) [M] -5.66) was 1.065% and 1.477% and 0.6965% and the “% Cell Survival” value ([2]; log (dose) [M] -6) was 2.222% and 1.477% and 1.393%. For the same compound, the “% Cell Survival” value ([2]; log (dose) [M] -6.33) was 1.806% and 1.286% and 1.045%, the “% Cell Survival” value ([2]; log (dose) [M] -6.66) was 2.083% and 3.383% and 1.095% and the “% Cell Survival” value ([2]; log (dose) [M] -7) was 3.194% and 5.908% and 1.443%. The “% Cell Survival” value ([2]; log (dose) [M] -7.33) was 3.7037% and 20.1525% and 3.632%, the “% Cell Survival” value ([2]; log (dose) [M] -7.66) was 6.2037% and 0.09528% and 3.8806% and the “% Cell Survival” value ([2]; log (dose) [M] -8) was 34.3519% and 21.3435% and 24.6766%. For the same compound, the viability at 10 µM ([3]; IMR-90, 72 h, Control, log (dose) [M] -5, 72 h, mean n=3 (Fig 3C), read-out: Mean % Cell Survival) was 15%, the viability at 4.677 µM ([3]; IMR-90, 72 h, Control, log (dose) [M] -5.33, 72 h, mean n=3 (Fig 3C), read-out: Mean % Cell Survival) was 20% and the viability at 2.188 µM ([3]; IMR-90, 72 h, Control, log (dose) [M] -5.66, 72 h, mean n=3 (Fig 3C), read-out: Mean % Cell Survival) was 20.5%. The viability at 1 µM ([3]; IMR-90, 72 h, Control, log (dose) [M] -6, 72 h, mean n=3 (Fig 3C), read-out: Mean % Cell Survival) was 25.6%, the viability at 0.4677 µM ([3]; IMR-90, 72 h, Control, log (dose) [M] -6.33, 72 h, mean n=3 (Fig 3C), read-out: Mean % Cell Survival) was 24.8% and the viability at 0.2188 µM ([3]; IMR-90, 72 h, Control, log (dose) [M] -6.66, 72 h, mean n=3 (Fig 3C), read-out: Mean % Cell Survival) was 24.3%. The viability at 0.1 µM ([3]; IMR-90, 72 h, Control, log (dose) [M] -7, 72 h, mean n=3 (Fig 3C), read-out: Mean % Cell Survival) was 34.7%, the viability at 0.04677 µM ([3]; IMR-90, 72 h, Control, log (dose) [M] -7.33, 72 h, mean n=3 (Fig 3C), read-out: Mean % Cell Survival) was 53.1% and the viability at 0.02188 µM ([3]; IMR-90, 72 h, Control, log (dose) [M] -7.66, 72 h, mean n=3 (Fig 3C), read-out: Mean % Cell Survival) was 80.8%. The viability at 0.01 µM ([3]; IMR-90, 72 h, Control, log (dose) [M] -8, 72 h, mean n=3 (Fig 3C), read-out: Mean % Cell Survival) was 92.8%, the viability at 4.677 µM ([3]; IMR-90, control, log (dose) [M] -5.33, individual replicates (Fig 3D), read-out: % Cell Survival) was 20.6% and the viability at 2.188 µM ([3]; IMR-90, control, log (dose) [M] -5.66, individual replicates (Fig 3D), read-out: % Cell Survival) was 18.9%. It also gave a viability at 1 µM ([3]; IMR-90, control, log (dose) [M] -6, individual replicates (Fig 3D), read-out: % Cell Survival) of 22.9%, a viability at 0.4677 µM ([3]; IMR-90, control, log (dose) [M] -6.33, individual replicates (Fig 3D), read-out: % Cell Survival) of 19.9% and a viability at 0.2188 µM ([3]; IMR-90, control, log (dose) [M] -6.66, individual replicates (Fig 3D), read-out: % Cell Survival) of 22.4%. It also gave a viability at 0.1 µM ([3]; IMR-90, control, log (dose) [M] -7, individual replicates (Fig 3D), read-out: % Cell Survival) of 31.3%, a viability at 0.04677 µM ([3]; IMR-90, control, log (dose) [M] -7.33, individual replicates (Fig 3D), read-out: % Cell Survival) of 54.6% and a viability at 0.02188 µM ([3]; IMR-90, control, log (dose) [M] -7.66, individual replicates (Fig 3D), read-out: % Cell Survival) of 71%. It also gave a viability at 0.01 µM ([3]; IMR-90, control, log (dose) [M] -8, individual replicates (Fig 3D), read-out: % Cell Survival) of 82.4% and an IC50 ([3]; IMR-90, OIS model, non-senescent IMR90 ER:RAS, nuclei count, 72 h) of 85 nM.
